Structures can show the parent of a compound that is named as a salt.
Tests used:
JH2 domain of human Tyk2 = biological target: T1, JH2 domain of human Tyk2 (Homo sapiens, UniProt P29597); test: JH2 biochemical assay (TR-FRET probe displacement); format: binding
T1 construct: 10×His-tagged TYK2 JH2 domain (amino acid 575-876)
Procedure, shortened: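 A probe-displacement TR-FRET readout: compounds, tested in 3-fold, 10-point dilutions starting at […], compete with 2 nM tracer for 2 nM His-tagged JH2 (residues 575-876) detected by 0.1 nM Tb-anti-His over 60 min. IC50 comes from 4-parameter fits of normalized 520/495 nm ratios.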

[1] = system: Tyk2 kinase activity on STAT4; test: pSTAT4 cell assay (MSD, NK92 cells); format: cell-based; details: compounds 1 hr
Method: The inhibitory potency of compounds of the disclosure against the Tyk2 kinase activity on STAT4 was evaluated using an MSD-platform plate-based assay format. NK92 cells natively expressing STAT4 and Tyk2 were serum-starved to reduce background phosphorylation levels, then cells were treated compounds for 1 hr with a 10-point four-fold dilution series starting at 10 μM. Cells were then stimulated with 30 ng/mL IL2 for 15 minutes. Cells were lysed and […] levels were quantitated using an MSD plate-based assay with anti-STAT4 antibodies. The data were normalized and the percent activity versus log concentration of compound were fitted with a 4-parameter logistic model to generate to generate IC50 curves.

[2] = TR-FRET probe displacement, JH2 domain of human Tyk2

T1 sequence (P29597 575-876): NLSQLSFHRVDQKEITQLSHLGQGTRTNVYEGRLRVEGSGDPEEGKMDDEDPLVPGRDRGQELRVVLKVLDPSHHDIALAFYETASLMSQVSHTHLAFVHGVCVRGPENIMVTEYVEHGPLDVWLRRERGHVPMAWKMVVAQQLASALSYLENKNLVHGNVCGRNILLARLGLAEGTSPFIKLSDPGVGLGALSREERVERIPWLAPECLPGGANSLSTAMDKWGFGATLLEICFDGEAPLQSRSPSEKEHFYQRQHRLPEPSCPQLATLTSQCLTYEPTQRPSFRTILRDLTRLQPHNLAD

Structure (SMILES) | IC50 (JH2 domain of human Tyk2; JH2 biochemical assay) [nM] | IC50 ([1]; stimulated 15 minutes) [nM] | IC50 (JH2 domain of human Tyk2; [2]) [nM] | IC50 ([1]; then stimulated 15 minutes) [nM]
COCCC1(C#N)CN(c2cc(C)cc(N3CC4(CC4)c4cnc(NC(C)=O)cc43)n2)C1 [Example 199, N-(1′-(6-(3-cyano-3-(2-methoxyethyl)azetidin-1-yl)-4-methylpyridin-2-yl)-1′,2′-dihydrospiro[cyclopropane-1,3′-pyrrolo[3,2-c]pyridin]-6′-yl)acetamide] | 10 to 100 | ≥ 1000 | – | –
CC(=O)Nc1cc2c(cn1)C1(CC1)CN2c1cc(C)cc(N2CCC(O)(C(F)(F)F)C2)n1 (stereo not drawn) [Example 186, N-(1′-(6-(3-hydroxy-3-(trifluoromethyl)pyrrolidin-1-yl)-4-methylpyridin-2-yl)-1′,2′-dihydrospiro[cyclopropane-1,3′-pyrrolo[3,2-c]pyridin]-6′-yl)acetamide] | 100 to 1000 | ≥ 1000 | – | –
CC(=O)Nc1cc2c(cn1)C1(CC1)CN2c1cc(-c2ncn(C)n2)nc(C(C)(F)F)n1 [Example 300, N-(1′-(2-(1,1-difluoroethyl)-6-(1-methyl-1H-1,2,4-triazol-3-yl)pyrimidin-4-yl)-1′,2′-dihydrospiro[cyclopropane-1,3′-pyrrolo[3,2-c]pyridin]-6′-yl)acetamide] | ≤ 10 | 100 to 1000 | – | –
COCCN(C)c1cc(N2CC3(CC3)c3cnc(NC(C)=O)cc32)nc(C(C)(F)F)n1 [Example 50, N-(1′-(2-(1,1-difluoroethyl)-6-((2-methoxyethyl)(methyl)amino)pyrimidin-4-yl)-1′,2′-dihydrospiro[cyclopropane-1,3′-pyrrolo[3,2-c]pyridin]-6′-yl)acetamide] | ≤ 10 | 100 to 1000 | – | –
CC(=O)Nc1cc2c(cn1)C1(CC1)CN2c1cc(Oc2cncnc2)nc(C(C)(F)F)n1 [Example 142, N-(1′-(2-(1,1-difluoroethyl)-6-(pyrimidin-5-yloxy)pyrimidin-4-yl)-1′,2′-dihydrospiro[cyclopropane-1,3′-pyrrolo[3,2-c]pyridin]-6′-yl)acetamide trifluoroacetate] | 10 to 100 | ≥ 1000 | – | –
CC(=O)Nc1cc2c(cn1)C1(CC1)CN2c1cc(-c2cnn(C(F)F)c2)nc(C(C)(F)F)n1 [Example 383, N-(1′-(2-(1,1-difluoroethyl)-6-(1-(difluoromethyl)-1H-pyrazol-4-yl)pyrimidin-4-yl)-1′,2′-dihydrospiro[cyclopropane-1,3′-pyrrolo[3,2-c]pyridin]-6′-yl)acetamide trifluoroacetate] | – | – | ≤ 10 | 10 to 100
CC(=O)Nc1cc2c(cn1)C1(CC1)CN2c1cc(NC2CCOC2)nc(C(C)(F)F)n1 (stereo not drawn) [Example 179, N-(1′-(2-(1,1-difluoroethyl)-6-((tetrahydrofuran-3-yl)amino)pyrimidin-4-yl)-1′,2′-dihydrospiro[cyclopropane-1,3′-pyrrolo[3,2-c]pyridin]-6′-yl)acetamide trifluoroacetate] | ≤ 10 | 10 to 100 | – | –
CC(=O)Nc1cc2c(cn1)C1(CC1)CN2c1cc(C)cc(OC2CC(O)C2)n1 (stereo not drawn) [Example 342, N-(1′-(6-(3-hydroxycyclobutoxy)-4-methylpyridin-2-yl)-1′,2′-dihydrospiro[cyclopropane-1,3′-pyrrolo[3,2-c]pyridin]-6′-yl)acetamide] | 100 to 1000 | ≥ 1000 | – | –
CC(=O)Nc1cc2c(cn1)C1(CC1)CN2c1cc(C)nc(C2COC2)n1 [Example 396, N-(1′-(6-methyl-2-(oxetan-3-yl)pyrimidin-4-yl)-1′,2′-dihydrospiro[cyclopropane-1,3′-pyrrolo[3,2-c]pyridin]-6′-yl)acetamide] | – | – | 10 to 100 | ≥ 1000
CC(=O)Nc1cc2c(cn1)C1(CC1)CN2c1cc(-c2ccc(C)nc2)nc(C(C)(F)F)n1 [Example 242, N-(1′-(2-(1,1-difluoroethyl)-6-(6-methylpyridin-3-yl)pyrimidin-4-yl)-1′,2′-dihydrospiro[cyclopropane-1,3′-pyrrolo[3,2-c]pyridin]-6′-yl)acetamide] | ≤ 10 | 10 to 100 | – | –
CC(=O)Nc1cc2c(cn1)C1(CC1)CN2c1cc(NCC2(F)CC2)nc(C(C)(F)F)n1 [Example 160, N-(1′-(2-(1,1-difluoroethyl)-6-(((1-fluorocyclopropyl)methyl)amino)pyrimidin-4-yl)-1′,2′-dihydrospiro[cyclopropane-1,3′-pyrrolo[3,2-c]pyridin]-6′-yl)acetamide trifluoroacetate] | ≤ 10 | 10 to 100 | – | –
CC(=O)Nc1cc2c(cn1)C1(CC1)CN2c1cc(C)cc(N2CC(OC(F)F)C2)n1 [Example 198, N-(1′-(6-(3-(difluoromethoxy)azetidin-1-yl)-4-methylpyridin-2-yl)-1′,2′-dihydrospiro[cyclopropane-1,3′-pyrrolo[3,2-c]pyridin]-6′-yl)acetamide] | 100 to 1000 | ≥ 1000 | – | –
COCC(C)Nc1cc(N2CC3(CC3)c3cnc(NC(C)=O)cc32)nc(C(C)(F)F)n1 (stereo not drawn) [Example 178, N-(1′-(2-(1,1-difluoroethyl)-6-((1-methoxypropan-2-yl)amino)pyrimidin-4-yl)-1′,2′-dihydrospiro[cyclopropane-1,3′-pyrrolo[3,2-c]pyridin]-6′-yl)acetamide trifluoroacetate] | ≤ 10 | 10 to 100 | – | –
CC(=O)Nc1cc2c(cn1)C1(CC1)CN2c1cc(-c2cnn(CCN3CCOCC3)c2)nc(C(C)(F)F)n1 [Example 390, N-(1′-(2-(1,1-difluoroethyl)-6-(1-(2-morpholinoethyl)-1H-pyrazol-4-yl)pyrimidin-4-yl)-1′,2′-dihydrospiro[cyclopropane-1,3′-pyrrolo[3,2-c]pyridin]-6′-yl)acetamide trifluoroacetate] | – | – | ≤ 10 | ≤ 10
CC(=O)Nc1cc2c(cn1)C1(CC1)CN2c1cc(=O)[nH]c(C(C)(F)F)n1 [Example 133, N-(1′-(2-(1,1-difluoroethyl)-6-oxo-1,6-dihydropyrimidin-4-yl)-1′,2′-dihydrospiro[cyclopropane-1,3′-pyrrolo[3,2-c]pyridin]-6′-yl)acetamide] | ≤ 10 | ≥ 1000 | – | –
CC(=O)Nc1cc2c(cn1)C1(CC1)CN2c1cc(C2CCC2)nc(C(C)(F)F)n1 [Example 24, N-(1′-(6-cyclobutyl-2-(1,1-difluoroethyl)pyrimidin-4-yl)-1′,2′-dihydrospiro[cyclopropane-1,3'-pyrrolo[3,2-c]pyridin]-6'-yl)acetamide] | ≤ 10 | 10 to 100 | – | –
CC(=O)Nc1cc2c(cn1)C1(CC1)CN2c1cc(C)nc(OC2CC(F)(F)C2)n1 [Example 363, N-(1′-(2-(3,3-difluorocyclobutoxy)-6-methylpyrimidin-4-yl)-1′,2′-dihydrospiro[cyclopropane-1,3′-pyrrolo[3,2-c]pyridin]-6′-yl)acetamide] | 100 to 1000 | ≥ 1000 | – | –
CC(=O)Nc1cc2c(cn1)C1(CC1)CN2c1cc(OC(C#N)C2CC2)nc(C(C)(F)F)n1 (stereo not drawn) [Example 152, N-(1′-(6-(cyano(cyclopropyl)methoxy)-2-(1,1-difluoroethyl)pyrimidin-4-yl)-1′,2′-dihydrospiro[cyclopropane-1,3′-pyrrolo[3,2-c]pyridin]-6′-yl)acetamide trifluoroacetate] | 10 to 100 | 100 to 1000 | – | –
CC(=O)Nc1cc2c(cn1)C1(CC1)CN2c1cc(C)nc(C(C)(C)C)n1 [Example 55, N-(1′-(2-(tert-butyl)-6-methylpyrimidin-4-yl)-1′,2′-dihydrospiro[cyclopropane-1,3′-pyrrolo[3,2-c]pyridin]-6′-yl)acetamide] | ≤ 10 | 100 to 1000 | – | –
CC(=O)Nc1cc2c(cn1)C1(CC1)CN2c1cc(-c2ccncc2F)nc(C(C)(F)F)n1 [Example 381, N-(1′-(2-(1,1-difluoroethyl)-6-(3-fluoropyridin-4-yl)pyrimidin-4-yl)-1′,2′-dihydrospiro[cyclopropane-1,3′-pyrrolo[3,2-c]pyridin]-6′-yl)acetamide trifluoroacetate] | – | – | ≤ 10 | ≤ 10
COC1CC1Nc1cc(N2CC3(CC3)c3cnc(NC(C)=O)cc32)nc(C(C)(F)F)n1 (stereo not drawn) [Example 177, N-(1′-(2-(1,1-difluoroethyl)-6-((2-methoxycyclopropyl)amino)pyrimidin-4-yl)-1′,2′-dihydrospiro[cyclopropane-1,3′-pyrrolo[3,2-c]pyridin]-6′-yl)acetamide] | ≤ 10 | 10 to 100 | – | –
CC(=O)Nc1cc2c(cn1)C1(CC1)CN2c1cc(C)nc(N2CCCC2)n1 [Example 114, N-(1′-(6-methyl-2-(pyrrolidin-1-yl)pyrimidin-4-yl)-1′,2′-dihydrospiro[cyclopropane-1,3′-pyrrolo[3,2-c]pyridin]-6′-yl)acetamide] | 10 to 100 | 100 to 1000 | – | –
CC(=O)Nc1cc2c(cn1)C1(CC1)CN2c1cc(C)cc(-c2cnn(C)c2)n1 [Example 257, N-(1′-(4-methyl-6-(1-methyl-1H-pyrazol-4-yl)pyridin-2-yl)-1′,2′-dihydrospiro[cyclopropane-1,3′-pyrrolo[3,2-c]pyridin]-6′-yl)acetamide trifluoroacetate] | ≤ 10 | 100 to 1000 | – | –
COC1(COc2nc(C)cc(N3CC4(CC4)c4cnc(NC(C)=O)cc43)n2)CCC1 [Example 378, N-(1′-(2-((1-methoxycyclobutyl)methoxy)-6-methylpyrimidin-4-yl)-1′,2′-dihydrospiro[cyclopropane-1,3′-pyrrolo[3,2-c]pyridin]-6′-yl)acetamide] | – | – | 100 to 1000 | ≥ 1000
